# Measured values as given in the OligoGym collection.
# HELM strings list units from the 5' end as sugar, base in round brackets, then linkage (d deoxyribose, r ribose, m 2'-O-methyl, p phosphodiester). Strings are as the collection lists them; they lack the last nucleoside at the 3' end of the tested compound. [moe] = 2'-O-(2-methoxyethyl) (MOE); [sp] = phosphorothioate linkage; [m5C] = 5-methylcytosine
# Target: ATXN3
# Test: mouse, dose not given
# Settings: ASO
row,Substance,3 h FOB score
1,RNA1{[moe](A)[sp].[moe]([m5C])p.[moe](T)p.[moe](G)p.[moe](G)[sp].d(T)[sp].d([m5C])[sp].d(A)[sp].d(G)[sp].d(T)[sp].d(T)[sp].d(T)[sp].d([m5C])[sp].d([m5C])[sp].d(T)[sp].[moe](A)p.[moe](A)p.[moe](T)[sp].[moe](T)}$$$$ (last 3' nucleoside missing),0 score 0-7
2,RNA1{[moe](T)[sp].[moe](A)p.[moe](A)p.[moe](T)p.[moe](A)[sp].d([m5C])[sp].d(T)[sp].d(T)[sp].d(U)[sp].d(T)[sp].d(T)[sp].d([m5C])[sp].d([m5C])[sp].d(A)[sp].d(G)[sp].[moe]([m5C])p.[moe]([m5C])p.[moe](T)[sp].[moe](T)}$$$$ (last 3' nucleoside missing),1 score 0-7
3,RNA1{[moe]([m5C])[sp].[moe]([m5C])p.[moe](A)p.[moe](A)p.[moe](T)p.d(A)[sp].d(T)[sp].d(T)[sp].d(T)[sp].d(A)[sp].d(T)[sp].d(A)[sp].d(G)[sp].d(G)[sp].d(T)[sp].[moe](G)p.[moe]([m5C])p.[moe](T)[sp].[moe](G)}$$$$ (last 3' nucleoside missing),1.75 score 0-7
4,RNA1{[moe](T)[sp].[moe](G)p.[moe]([m5C])p.[moe](T)p.[moe]([m5C])[sp].d(A)[sp].d(T)[sp].d(T)[sp].d(T)[sp].d(A)[sp].d(T)[sp].d(T)[sp].d([m5C])[sp].d(T)[sp].d([m5C])[sp].[moe](A)p.[moe](A)p.[moe](G)[sp].[moe](T)}$$$$ (last 3' nucleoside missing),0 score 0-7
5,RNA1{[moe](T)[sp].[moe](G)p.[moe]([m5C])p.[moe](T)p.[moe]([m5C])p.d(A)[sp].d(T)[sp].d(T)[sp].d(T)[sp].d(A)[sp].d(T)[sp].d(T)[sp].d([m5C])[sp].d(T)[sp].d([m5C])[sp].[moe](A)p.[moe](A)p.[moe](G)[sp].[moe](T)}$$$$ (last 3' nucleoside missing),1 score 0-7
6,RNA1{[moe](A)[sp].[moe](T)p.[moe]([m5C])p.[moe](A)p.[moe]([m5C])[sp].d(T)[sp].d(G)[sp].d([m5C])[sp].d(A)[sp].d([m5C])[sp].d(A)[sp].d([m5C])[sp].d(T)[sp].d(T)[sp].d(T)[sp].[moe]([m5C])p.[moe]([m5C])p.[moe](T)[sp].[moe]([m5C])}$$$$ (last 3' nucleoside missing),0 score 0-7
7,RNA1{[moe](T)[sp].[moe](A)p.[moe](A)p.[moe](T)p.[moe](A)p.[moe]([m5C])p.d(T)[sp].d(T)[sp].d(T)[sp].d(T)[sp].d(T)[sp].d([m5C])[sp].d([m5C])[sp].d(A)[sp].d(G)[sp].d([m5C])[sp].[moe]([m5C])p.[moe](T)[sp].[moe](T)}$$$$ (last 3' nucleoside missing),3 score 0-7
8,RNA1{[moe](G)[sp].[moe]([m5C])[sp].[moe](A)p.[moe]([m5C])p.[moe]([m5C])[sp].d(A)[sp].d(T)[sp].d(A)[sp].d(T)[sp].d(A)[sp].d(T)[sp].d(A)[sp].d(T)[sp].d([m5C])[sp].d(T)[sp].[moe]([m5C])p.[moe](A)p.[moe](G)[sp].[moe](A)}$$$$ (last 3' nucleoside missing),1 score 0-7
9,RNA1{[moe](A)[sp].[moe](T)p.[moe](T)p.[moe]([m5C])p.[moe](T)[sp].d(T)[sp].d(G)[sp].d([m5C])[sp].d(T)[sp].d(T)[sp].d([m5C])[sp].d(A)[sp].d(A)[sp].d([m5C])[sp].d([m5C])[sp].[moe](A)p.[moe](T)p.[moe]([m5C])[sp].[moe](A)}$$$$ (last 3' nucleoside missing),0.375 score 0-7
10,RNA1{[moe](A)[sp].[moe](T)p.[moe](G)p.[moe](T)p.[moe](T)[sp].d([m5C])[sp].d(A)[sp].d(T)[sp].d(A)[sp].d(T)[sp].d([m5C])[sp].d([m5C])[sp].d(T)[sp].d(T)[sp].d(T)[sp].[moe](A)p.[moe](A)p.[moe]([m5C])[sp].[moe]([m5C])}$$$$ (last 3' nucleoside missing),0 score 0-7
11,RNA1{[moe](A)[sp].[moe](T)p.[moe](T)p.[moe](T)p.[moe](T)[sp].d([m5C])[sp].d(A)[sp].d(T)[sp].d(G)[sp].d(T)[sp].d(T)[sp].d([m5C])[sp].d([m5C])[sp].d(A)[sp].d(G)[sp].[moe](A)p.[moe](T)p.[moe]([m5C])[sp].[moe](A)}$$$$ (last 3' nucleoside missing),1 score 0-7
12,RNA1{[moe](A)[sp].[moe]([m5C])p.[moe](T)p.[moe](G)p.[moe]([m5C])[sp].d(A)[sp].d([m5C])[sp].d(A)[sp].d([m5C])[sp].d(T)[sp].d(T)[sp].d(T)[sp].d([m5C])[sp].d([m5C])[sp].d(T)[sp].[moe]([m5C])p.[moe]([m5C])p.[moe](T)[sp].[moe]([m5C])}$$$$ (last 3' nucleoside missing),0 score 0-7
13,RNA1{[moe](G)[sp].[moe]([m5C])p.[moe](A)p.[moe]([m5C])p.[moe]([m5C])p.d(A)[sp].d(T)[sp].d(A)[sp].d(T)[sp].d(A)[sp].d(T)[sp].d(A)[sp].d(T)[sp].d([m5C])[sp].d(T)[sp].[moe]([m5C])p.[moe](A)p.[moe](G)[sp].[moe](A)}$$$$ (last 3' nucleoside missing),1 score 0-7
14,RNA1{[moe](T)[sp].[moe](G)[sp].[moe](T)p.[moe](T)p.[moe](A)[sp].d(A)[sp].d(T)[sp].d(A)[sp].d([m5C])[sp].d(T)[sp].d(T)[sp].d(T)[sp].d(T)[sp].d(T)[sp].d([m5C])[sp].[moe]([m5C])p.[moe](A)p.[moe](G)[sp].[moe]([m5C])}$$$$ (last 3' nucleoside missing),1 score 0-7
15,RNA1{[moe](T)[sp].[moe](G)p.[moe](G)p.[moe](T)p.[moe](T)[sp].d(T)[sp].d(T)[sp].d([m5C])[sp].d(T)[sp].d([m5C])[sp].d(A)[sp].d(T)[sp].d(T)[sp].d(T)[sp].d(T)[sp].[moe](T)p.[moe](A)p.[moe](T)[sp].[moe](A)}$$$$ (last 3' nucleoside missing),0 score 0-7
16,RNA1{[moe](G)[sp].[moe](T)p.[moe](T)p.[moe](A)p.[moe](A)p.[moe](T)p.d(A)[sp].d([m5C])[sp].d(T)[sp].d(T)[sp].d(T)[sp].d(T)[sp].d(T)[sp].d([m5C])[sp].d([m5C])[sp].d(A)[sp].[moe](G)p.[moe]([m5C])[sp].[moe]([m5C])}$$$$ (last 3' nucleoside missing),1 score 0-7
17,RNA1{[moe](A)[sp].[moe](G)p.[moe](T)p.[moe](G)p.[moe]([m5C])[sp].d(T)[sp].d(A)[sp].d(T)[sp].d(A)[sp].d(A)[sp].d(T)[sp].d(T)[sp].d([m5C])[sp].d(T)[sp].d(T)[sp].[moe](G)p.[moe]([m5C])p.[moe](T)[sp].[moe](T)}$$$$ (last 3' nucleoside missing),0.25 score 0-7
18,RNA1{[moe](A)[sp].[moe]([m5C])p.[moe]([m5C])p.[moe]([m5C])p.[moe](A)[sp].d(A)[sp].d(T)[sp].d(A)[sp].d(A)[sp].d(T)[sp].d([m5C])[sp].d(T)[sp].d(G)[sp].d(A)[sp].d([m5C])[sp].[moe](A)p.[moe](T)p.[moe]([m5C])[sp].[moe]([m5C])}$$$$ (last 3' nucleoside missing),0 score 0-7
19,RNA1{[moe](T)[sp].[moe](G)p.[moe]([m5C])p.[moe](A)p.[moe]([m5C])[sp].d(A)[sp].d([m5C])[sp].d(T)[sp].d(T)[sp].d(T)[sp].d([m5C])[sp].d([m5C])[sp].d(T)[sp].d([m5C])[sp].d([m5C])[sp].[moe](T)p.[moe]([m5C])p.[moe](A)[sp].[moe](A)}$$$$ (last 3' nucleoside missing),0.5 score 0-7
20,RNA1{[moe](G)[sp].[moe](T)p.[moe](G)p.[moe]([m5C])p.[moe](T)p.d(T)[sp].d(T)[sp].d(T)[sp].d([m5C])[sp].d(A)[sp].d(T)[sp].d(A)[sp].d([m5C])[sp].d([m5C])[sp].d(A)[sp].[moe](G)p.[moe](G)p.[moe](T)[sp].[moe]([m5C])}$$$$ (last 3' nucleoside missing),1.5 score 0-7
21,RNA1{[moe](T)[sp].[moe](G)p.[moe](T)p.[moe](T)p.[moe](A)[sp].d(A)[sp].d(T)[sp].d(A)[sp].d([m5C])[sp].d(T)[sp].d(T)[sp].d(T)[sp].d(T)[sp].d(T)[sp].d([m5C])[sp].[moe]([m5C])p.[moe](A)p.[moe](G)[sp].[moe]([m5C])}$$$$ (last 3' nucleoside missing),0 score 0-7
22,RNA1{[moe](T)[sp].[moe](G)[sp].[moe](G)p.[moe]([m5C])p.[moe](A)[sp].d([m5C])[sp].d(A)[sp].d(T)[sp].d(T)[sp].d(T)[sp].d(T)[sp].d(T)[sp].d(T)[sp].d(A)[sp].d(T)[sp].[moe](A)p.[moe](G)p.[moe](A)[sp].[moe](G)}$$$$ (last 3' nucleoside missing),3.25 score 0-7
23,RNA1{[moe](G)[sp].[moe]([m5C])p.[moe](A)[sp].[moe]([m5C])[sp].[moe]([m5C])[sp].d(A)[sp].d(T)[sp].d(A)[sp].d(T)[sp].d(A)[sp].d(T)[sp].d(A)[sp].d(T)[sp].d([m5C])[sp].d(T)[sp].[moe]([m5C])[sp].[moe](A)p.[moe](G)[sp].[moe](A)}$$$$ (last 3' nucleoside missing),0 score 0-7
24,RNA1{[moe](G)[sp].[moe]([m5C])p.[moe]([m5C])p.[moe](A)p.[moe](T)p.d(T)[sp].d(A)[sp].d(A)[sp].d(T)[sp].d([m5C])[sp].d(T)[sp].d(A)[sp].d(T)[sp].d(A)[sp].d([m5C])[sp].[moe](T)p.[moe](G)p.[moe](A)[sp].[moe](A)}$$$$ (last 3' nucleoside missing),1 score 0-7
25,RNA1{[moe](G)[sp].[moe]([m5C])p.[moe](A)p.[moe](T)p.[moe](A)p.d(T)[sp].d(T)[sp].d(G)[sp].d(G)[sp].d(T)[sp].d(T)[sp].d(T)[sp].d(T)[sp].d([m5C])[sp].d(T)[sp].[moe]([m5C])p.[moe](A)p.[moe](T)[sp].[moe](T)}$$$$ (last 3' nucleoside missing),2.5 score 0-7
26,RNA1{[moe](G)[sp].[moe]([m5C])p.[moe](T)[sp].[moe]([m5C])[sp].[moe](A)[sp].d(T)[sp].d(T)[sp].d(T)[sp].d(A)[sp].d(T)[sp].d(T)[sp].d([m5C])[sp].d(T)[sp].d([m5C])[sp].d(A)[sp].[moe](A)[sp].[moe](G)p.[moe](T)[sp].[moe](A)}$$$$ (last 3' nucleoside missing),2 score 0-7
